Data as given in US8987309B2, “Compounds, pharmaceutical compositions and methods of use of 2-aryl pyridylazoles” (The Translational Genomics Research Institute, priority 2009, dated 2015).
Where “and” joins values, the source holds several entries; their conditions need not be identical. Identical values can stand only once.

Legend:
[1] = system: BxPC3 DPC-4(+/+) and BxPC3 DPC-4(−/−) cells; assay: Cytotoxicity (96-h MTT) in isogenic BxPC3 cell lines; assay type: cell-based, Human
Experimental: Cell lines and Culture Conditions. Human pancreatic cancer cell lines MiaPaCa-2 (Yunis et al., 1977), Panc-1 (Lieber et al., 1975), and BxPC3 (Tan et al., 1986) were purchased from the American Type Culture Collection (Manassas, Va.) and cultured in a humidified incubator at 37° C., 5% CO2, in RPMI 1640 medium (CellGro, Manassas, Va.) supplemented with 10% heat-inactivated bovine calf serum, 2 mM L-glutamine, 100 U/ml penicillin, and 100 µg/ml streptomycin (Invitrogen, Carlsbad, Calif.). MiaPaCa-2 (CRL-1420) is an adherent epithelial human pancreatic cancer cell line with a doubling time of approximately 40 h (Yunis et al., 1977). Panc-1 (CRL-1469) is an undifferentiated human pancreatic epithelial cell line with a doubling time of approximately 52 h (Lieber et al., 1975). The BxPC3 cell line DPC-4(−/−) and its isogenic restored wild-type DPC-4(+/+) cell line were developed and cultured as described previously (Wang et al., 2006). In brief, a DPC-4-expressing construct (pMSCVneoDPC-4) was created by amplifying full-length cDNA of DPC-4 using reverse transcriptase-PCR and subcloning into the multiple cloning site of a retroviral vector (pMSCVneo). The DPC-4-expressing construct was cotransfected into the BxPC3 DPC-4(−/−) cells using a packaging cell line, resulting in a cell line that constitutively expresses DPC-4. The expression of DPC-4 was confirmed by Western blotting (Wang et al., 2006).
(§1) Cytotoxicity Assays. Cytotoxicity assays in the mechanism of action studies were performed according to Mosmann (1983), wherein the activity of mitochondrial reductases were measured using 3-(4,5-dimethylthiozol-3-yl)-2,5-diphenyltetrozolium bromide dye. In brief, cells were seeded in 96-well plates and incubated for various times at 37° C. Inhibition of cell growth was measured by adding 3-(4,5-dimethylthiozol-3-yl)-2,5-diphenyltetrozolium bromide dye, and after an additional 4 h of incubation at 37° C., the 96-well plates were centrifuged, and the culture supernatant was removed. DMSO was added to each well to solubilize the formazan crystals, and the optical density was read at 540 nm on a Quant Spectrophotometer (BioTek Instruments, Winooski, Vt.). Cell growth inhibition data are expressed as percentage of survival compared with untreated cells. The IC50 is defined as the drug concentration required to produce 50% growth inhibition. Results are mean S.E.M. (n 3).
Mean±S.E.M., n=3. […] Mean±S.E.M., n=3. […] Mean tumor burden is shown.

[2] = biological target: T1, PDGFRα (Homo sapiens, UniProt P16234); assay: Initial kinase screening (Amphora), PDGFRα; assay type: biochemical; conditions: 10 μM compound
T1 construct: assay run by Amphora Discovery Corporation (Durham, N.C.)
Experimental: (§2) Kinase Screening. Initial kinase screening was performed by Amphora Discovery Corporation (Durham, N.C.).

[3] = biological target: T2, PDGFRβ (Homo sapiens, UniProt P09619); assay: Initial kinase screening (Amphora), PDGFRβ; assay type: biochemical; conditions: 10 μM compound
T2 construct: assay run by Amphora Discovery Corporation (Durham, N.C.)
Experimental: as §2

[4] = system: PC3; assay: IC50 in tumor cell lines (PC3); assay type: cell-based; conditions: Table 1; prostate tumor cell line PC3
Experimental: as §1

[5] = system: DU145; assay: IC50 in tumor cell lines (DU145); assay type: cell-based; conditions: Table 1; prostate tumor cell line DU145
Experimental: as §1

[6] = system: H460; assay: IC50 in tumor cell lines (H460); assay type: cell-based; conditions: Table 1; lung tumor cell line H460
Experimental: as §1

[7] = system: A549; assay: IC50 in tumor cell lines (A549); assay type: cell-based; conditions: Table 1; lung tumor cell line A549
Experimental: as §1

[8] = biological target: PIM-1 (Homo sapiens, UniProt P11309); assay: Initial kinase screening (Amphora), PIM-1; assay type: biochemical; set-up: assay run by Amphora Discovery Corporation (Durham, N.C.); conditions: 10 μM compound
Experimental: as §2

[9] = biological target: TrkB (Homo sapiens, UniProt Q16620); assay: Initial kinase screening (Amphora), TrkB; assay type: biochemical; set-up: assay run by Amphora Discovery Corporation (Durham, N.C.); conditions: 10 μM compound
Experimental: as §2

[10] = biological target: T3, CDK2/cyclin A (Homo sapiens, UniProt P24941); assay: Initial kinase screening (Amphora), CDK2/cyclin A; assay type: biochemical; conditions: 10 μM compound
T3 construct: assay run by Amphora Discovery Corporation (Durham, N.C.)
Experimental: as §2

[11] = system: 48 protein kinases; assay: Initial kinase screening (Amphora), panel of 48 protein kinases; assay type: biochemical; conditions: 10 μM compound
Experimental: as §2

[12] = Solubility (statement); assay type: physicochemical

T2 sequence (P09619 33-1106, species assumed): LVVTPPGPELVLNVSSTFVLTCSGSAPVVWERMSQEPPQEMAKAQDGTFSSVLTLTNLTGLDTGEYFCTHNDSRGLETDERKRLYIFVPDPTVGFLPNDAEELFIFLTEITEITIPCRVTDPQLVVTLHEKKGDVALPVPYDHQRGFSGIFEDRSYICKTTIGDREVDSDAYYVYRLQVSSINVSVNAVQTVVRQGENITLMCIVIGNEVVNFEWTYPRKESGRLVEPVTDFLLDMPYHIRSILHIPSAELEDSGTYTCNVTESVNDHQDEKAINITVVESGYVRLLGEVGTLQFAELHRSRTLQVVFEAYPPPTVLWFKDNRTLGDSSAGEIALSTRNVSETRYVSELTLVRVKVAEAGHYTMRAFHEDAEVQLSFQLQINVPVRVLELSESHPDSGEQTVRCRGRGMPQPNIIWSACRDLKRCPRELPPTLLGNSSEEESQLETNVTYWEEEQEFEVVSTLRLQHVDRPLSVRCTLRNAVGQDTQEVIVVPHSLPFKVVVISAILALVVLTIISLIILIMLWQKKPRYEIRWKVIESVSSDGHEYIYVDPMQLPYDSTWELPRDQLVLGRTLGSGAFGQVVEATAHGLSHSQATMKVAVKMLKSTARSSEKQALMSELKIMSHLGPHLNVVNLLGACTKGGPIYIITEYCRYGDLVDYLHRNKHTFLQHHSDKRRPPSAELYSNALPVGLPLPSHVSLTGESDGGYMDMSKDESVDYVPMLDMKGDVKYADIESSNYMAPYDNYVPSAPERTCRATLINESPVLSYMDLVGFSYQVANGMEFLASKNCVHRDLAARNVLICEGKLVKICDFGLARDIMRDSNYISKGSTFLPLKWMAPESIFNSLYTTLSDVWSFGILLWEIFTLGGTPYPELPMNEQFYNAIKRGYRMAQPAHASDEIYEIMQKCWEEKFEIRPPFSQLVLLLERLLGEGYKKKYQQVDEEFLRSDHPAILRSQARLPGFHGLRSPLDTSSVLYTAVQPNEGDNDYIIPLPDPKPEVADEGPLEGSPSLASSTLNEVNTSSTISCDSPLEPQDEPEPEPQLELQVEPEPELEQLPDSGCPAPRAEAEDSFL
T1 sequence (P16234 24-1089, species assumed): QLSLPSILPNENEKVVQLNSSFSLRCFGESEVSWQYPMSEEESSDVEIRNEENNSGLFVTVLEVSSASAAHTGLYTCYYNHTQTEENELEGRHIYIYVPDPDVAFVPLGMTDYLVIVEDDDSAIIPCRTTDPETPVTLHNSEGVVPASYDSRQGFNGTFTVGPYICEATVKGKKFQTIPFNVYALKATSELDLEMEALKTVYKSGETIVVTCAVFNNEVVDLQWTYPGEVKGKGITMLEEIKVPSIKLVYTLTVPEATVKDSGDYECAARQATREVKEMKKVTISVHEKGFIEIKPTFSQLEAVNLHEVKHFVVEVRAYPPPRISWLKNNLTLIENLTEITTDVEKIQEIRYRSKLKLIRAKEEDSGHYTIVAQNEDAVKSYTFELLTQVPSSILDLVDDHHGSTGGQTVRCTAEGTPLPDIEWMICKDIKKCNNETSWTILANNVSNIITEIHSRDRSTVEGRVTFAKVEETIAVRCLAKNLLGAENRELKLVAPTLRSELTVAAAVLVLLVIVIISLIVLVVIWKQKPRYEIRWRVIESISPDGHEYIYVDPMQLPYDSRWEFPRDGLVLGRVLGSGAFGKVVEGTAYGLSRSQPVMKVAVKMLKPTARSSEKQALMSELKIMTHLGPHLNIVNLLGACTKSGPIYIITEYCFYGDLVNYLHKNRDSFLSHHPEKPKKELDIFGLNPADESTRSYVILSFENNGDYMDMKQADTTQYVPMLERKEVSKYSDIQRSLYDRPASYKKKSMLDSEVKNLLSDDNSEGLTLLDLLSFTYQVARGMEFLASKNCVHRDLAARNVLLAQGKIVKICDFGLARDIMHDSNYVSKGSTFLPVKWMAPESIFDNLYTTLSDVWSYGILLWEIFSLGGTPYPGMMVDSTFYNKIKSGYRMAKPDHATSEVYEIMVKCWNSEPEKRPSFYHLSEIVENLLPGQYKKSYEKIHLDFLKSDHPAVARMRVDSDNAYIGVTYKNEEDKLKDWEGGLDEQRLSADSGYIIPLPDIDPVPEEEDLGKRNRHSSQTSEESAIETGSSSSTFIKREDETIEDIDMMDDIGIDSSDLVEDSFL
Sequence of PIM-1 (P11309 whole entry): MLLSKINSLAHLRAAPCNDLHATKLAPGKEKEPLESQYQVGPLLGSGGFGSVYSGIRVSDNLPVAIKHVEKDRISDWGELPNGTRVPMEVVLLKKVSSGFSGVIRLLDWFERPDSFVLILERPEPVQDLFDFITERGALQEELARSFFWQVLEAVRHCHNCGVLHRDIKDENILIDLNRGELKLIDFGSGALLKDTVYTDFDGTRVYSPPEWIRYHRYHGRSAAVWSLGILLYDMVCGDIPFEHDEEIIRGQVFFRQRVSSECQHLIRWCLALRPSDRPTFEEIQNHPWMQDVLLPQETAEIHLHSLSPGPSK
Sequence of TrkB (Q16620 32-822): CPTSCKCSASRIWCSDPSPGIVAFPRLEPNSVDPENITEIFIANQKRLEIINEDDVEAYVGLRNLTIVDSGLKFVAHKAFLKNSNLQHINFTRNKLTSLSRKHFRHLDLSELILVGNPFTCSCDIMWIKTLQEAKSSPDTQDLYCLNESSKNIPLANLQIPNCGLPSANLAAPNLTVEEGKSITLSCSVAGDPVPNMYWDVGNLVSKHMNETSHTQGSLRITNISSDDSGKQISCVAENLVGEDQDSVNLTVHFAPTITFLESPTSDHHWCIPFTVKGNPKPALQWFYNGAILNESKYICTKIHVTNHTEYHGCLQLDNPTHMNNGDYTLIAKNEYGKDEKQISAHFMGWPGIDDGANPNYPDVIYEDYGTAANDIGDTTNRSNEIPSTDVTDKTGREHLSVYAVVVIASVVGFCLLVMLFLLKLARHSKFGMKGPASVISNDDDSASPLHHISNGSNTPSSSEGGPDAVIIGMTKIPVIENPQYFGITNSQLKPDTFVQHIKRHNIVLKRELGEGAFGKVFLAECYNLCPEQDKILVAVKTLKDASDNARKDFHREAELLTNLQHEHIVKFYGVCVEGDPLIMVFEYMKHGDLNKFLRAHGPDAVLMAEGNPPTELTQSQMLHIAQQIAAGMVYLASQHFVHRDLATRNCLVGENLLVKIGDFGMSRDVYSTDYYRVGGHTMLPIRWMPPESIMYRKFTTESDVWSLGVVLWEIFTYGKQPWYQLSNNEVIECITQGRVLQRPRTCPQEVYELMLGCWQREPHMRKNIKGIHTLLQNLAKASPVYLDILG

Compound	potency against BxPC3 cell lines (in words) [1]	inhibition of PDGFRα [2]	inhibition of PDGFRβ [3]	IC50 [4]	IC50 [5]	IC50 [6]	IC50 [7]	inhibition of PIM-1 [8]	inhibition of TrkB [9]	selectivity index ([1]; ratio of the IC50 in BxPC3 DPC-4(+/+) to BxPC3 DPC-4(−/−) cells)	inhibition of CDK2/cyclin A [10]	inhibition of any protein kinases (panel, in words) [11]	solubility (in words) [12]
COc1ccc(-c2cnc(-c3ccccc3-c3ccccc3)o2)cc1 [DPC-026]	retained high potency	59%	43%										
COc1ccc(-c2cnc(-c3ccncc3-c3ccccc3)o2)cc1 [DPC043]	retained potency			9.9 nM	20 nM	50 nM	33 nM	~50%	~50%				
COc1ccc(-c2cnc(-c3cccc4c3-c3ccccc3C4=O)o2)cc1 [UA-62784, reference compound]	high potency									2 and 1.9	57%	no significant (>50%) inhibition	lack of solubility
